Test results published in ChEMBL document CHEMBL1138397, “New C25 carbamate rifamycin derivatives are resistant to inactivation by ADP-ribosyl transferases” (2007).
Converted amounts (≈) assume the structure as drawn.

Legend:
Escherichia coli [1] = test: Antimicrobial activity against Arr-2 negative Escherichia coli DH5alpha bearing pCTF104P; assay type: functional
[2] = test system: Mycolicibacterium smegmatis; test: Ratio of MIC for Arr-1 positive Mycobacterium smegmatis DSM 43756 to MIC for Arr-1 negative Mycobacterium smegmatis DSM 43756Kml; assay type: functional
Escherichia coli [3] = test: Antimicrobial activity against Arr-2 positive Escherichia coli DH5-alpha bearing pCTF104; assay type: functional; details: DH5alpha
[4] = test system: Mycolicibacterium smegmatis; test: Antimicrobial activity against Arr-1 negative Mycobacterium smegmatis DSM 43756Kml; assay type: functional
Escherichia coli [5] = test: Ratio of MIC for Arr-2 positive Escherichia coli CGSC 5163 lpxC101 mutant bearing pCTV104 to MIC for Arr-2 negative Escherichia coli CGSC 5163 lpxC101 mutant bearing pCTV104P; assay type: functional
Escherichia coli [6] = test: Antimicrobial activity against Arr-2 negative Escherichia coli CGSC 5163 lpxC101 mutant bearing pCTV104P; assay type: functional
[7] = test system: Mycolicibacterium smegmatis; test: Antimicrobial activity against Arr-1 positive Mycobacterium smegmatis DSM 43756; assay type: functional
Escherichia coli [8] = test: Antimicrobial activity against Arr-2 positive Escherichia coli CGSC 5163 lpxC101 mutant bearing pCTV104; assay type: functional
Staphylococcus aureus [9] = test: Antimicrobial activity against rifampin-sensitive Staphylococcus aureus ATCC 29213; assay type: functional
Staphylococcus aureus [10] = test: Antimicrobial activity against rifampin-resistant Staphylococcus aureus ATCC 29213 rpoB (His481Tyr) mutant; assay type: functional
Escherichia coli [11] = test: Ratio of MIC for Arr-2 positive Escherichia coli DH5-alpha bearing pCTF104 to MIC for Arr-2 negative Escherichia coli DH5-alpha bearing pCTF104P; assay type: functional, DH5alpha

Structure (SMILES) | MIC (Escherichia coli [1]) [µg/mL] | Ratio [2] | MIC (Escherichia coli [3]) [µg/mL] | MIC [4] [µg/mL] | Ratio (Escherichia coli [5]) | MIC (Escherichia coli [6]) [µg/mL] | MIC [7] [µg/mL] | MIC (Escherichia coli [8]) [µg/mL] | MIC (Staphylococcus aureus [9]) [µg/mL] | MIC (Staphylococcus aureus [10]) [µg/mL] | Ratio (Escherichia coli [11])
CO[C@H]1/C=C/O[C@@]2(C)Oc3c(C)c(O)c4c(c3C2=O)C(=O)C(N2CCOCC2)=C(NC(=O)/C(C)=C\C=C\[C@H](C)[C@H](O)[C@@H](C)[C@@H](O)[C@@H](C)[C@H](OC(=O)NCc2ccc(C(F)(F)F)cc2)[C@@H]1C)C4=O | > 250 | >4 | > 250 | ≤ 0.03 | 2 | 0.5 (≈ 0.532 µM) | 0.12 (≈ 0.128 µM) | 1 (≈ 1.06 µM) | 0.03 (≈ 0.0319 µM) |  | 
CO[C@H]1/C=C/O[C@@]2(C)Oc3c(C)c(O)c4c(c3C2=O)C(=O)C(N2CCOCC2)=C(NC(=O)/C(C)=C\C=C\[C@H](C)[C@H](O)[C@@H](C)[C@@H](O)[C@@H](C)[C@H](OC(=O)NCc2cccc(Cl)c2)[C@@H]1C)C4=O | > 250 | >4 | > 250 | ≤ 0.03 | 2 | 0.24 (≈ 0.265 µM) | 0.12 (≈ 0.132 µM) | 0.5 (≈ 0.552 µM) | 0.008 (≈ 0.00883 µM) | > 63 | 
COc1ccc(CNC(=O)O[C@H]2[C@H](C)[C@H](O)[C@H](C)[C@@H](O)[C@@H](C)/C=C/C=C(/C)C(=O)NC3=C(N4CCOCC4)C(=O)c4c(c(O)c(C)c5c4C(=O)[C@@](C)(O/C=C/[C@H](OC)[C@H]2C)O5)C3=O)cc1 | 16 (≈ 17.7 µM) | 2 | > 250 | 0.03 (≈ 0.0333 µM) | 1 | 0.5 (≈ 0.554 µM) | 0.06 (≈ 0.0665 µM) | 0.5 (≈ 0.554 µM) | 0.016 (≈ 0.0177 µM) | 4 (≈ 4.43 µM) | >16
CO[C@H]1/C=C/O[C@@]2(C)Oc3c(C)c(O)c4c(c3C2=O)C(=O)C(N2CCOCC2)=C(NC(=O)/C(C)=C\C=C\[C@H](C)[C@H](O)[C@@H](C)[C@@H](O)[C@@H](C)[C@H](OC(=O)NCc2cc(-c3ccccn3)no2)[C@@H]1C)C4=O | 4 (≈ 4.26 µM) | 1 | 4 (≈ 4.26 µM) | 0.5 (≈ 0.532 µM) |  | 2 (≈ 2.13 µM) | 0.5 (≈ 0.532 µM) | 2 (≈ 2.13 µM) | 0.008 (≈ 0.00851 µM) | > 63 | 1
CO[C@H]1/C=C/O[C@@]2(C)Oc3c(C)c(O)c4c(c3C2=O)C(=O)C(N2CCOCC2)=C(NC(=O)/C(C)=C\C=C\[C@H](C)[C@H](O)[C@@H](C)[C@@H](O)[C@@H](C)[C@H](OC(=O)NCc2ccc(N(C)C)cc2)[C@@H]1C)C4=O | 63 (≈ 68.8 µM) | 1 | > 250 | 0.06 (≈ 0.0656 µM) | 16 | 1 (≈ 1.09 µM) | 0.06 (≈ 0.0656 µM) | 16 (≈ 17.5 µM) | 0.06 (≈ 0.0656 µM) | > 63 | >4
CO[C@H]1/C=C/O[C@@]2(C)Oc3c(C)c(O)c4c(c3C2=O)C(=O)C(N2CCOCC2)=C(NC(=O)/C(C)=C\C=C\[C@H](C)[C@H](O)[C@@H](C)[C@@H](O)[C@@H](C)[C@H](OC(=O)N2CCOCC2)[C@@H]1C)C4=O | 31 (≈ 36.4 µM) | 2 | 63 (≈ 73.9 µM) | 1 (≈ 1.17 µM) | 1 | 1 (≈ 1.17 µM) | 2 (≈ 2.35 µM) | 1 (≈ 1.17 µM) | 0.03 (≈ 0.0352 µM) |  | 2
C=CCNC(=O)O[C@H]1[C@H](C)[C@H](O)[C@H](C)[C@@H](O)[C@@H](C)/C=C/C=C(/C)C(=O)NC2=C(N3CCOCC3)C(=O)c3c(c(O)c(C)c4c3C(=O)[C@@](C)(O/C=C/[C@H](OC)[C@H]1C)O4)C2=O | 8 (≈ 9.73 µM) | >32 | > 250 | 0.06 (≈ 0.073 µM) | 16 | 0.24 (≈ 0.292 µM) | 2 (≈ 2.43 µM) | 4 (≈ 4.87 µM) | 0.004 (≈ 0.00487 µM) |  | >32
CO[C@H]1/C=C/O[C@@]2(C)Oc3c(C)c(O)c4c(c3C2=O)C(=O)C(N2CCOCC2)=C(NC(=O)/C(C)=C\C=C\[C@H](C)[C@H](O)[C@@H](C)[C@@H](O)[C@@H](C)[C@H](OC(=O)NCCO)[C@@H]1C)C4=O | 8 (≈ 9.69 µM) | 4 | > 250 | 2 (≈ 2.42 µM) | 16 | 0.5 (≈ 0.605 µM) | 8 (≈ 9.69 µM) | 8 (≈ 9.69 µM) | 0.016 (≈ 0.0194 µM) | 16 (≈ 19.4 µM) | >32
CO[C@H]1/C=C/O[C@@]2(C)Oc3c(C)c(O)c4c(c3C2=O)C(=O)C(N2CCOCC2)=C(NC(=O)/C(C)=C\C=C\[C@H](C)[C@H](O)[C@@H](C)[C@@H](O)[C@@H](C)[C@H](OC(=O)NCCN(C)C)[C@@H]1C)C4=O | 4 (≈ 4.69 µM) | 4 | 8 (≈ 9.38 µM) | 0.12 (≈ 0.141 µM) | 1 | 0.24 (≈ 0.281 µM) | 0.5 (≈ 0.586 µM) | 0.24 (≈ 0.281 µM) | 0.006 (≈ 0.00703 µM) | > 63 | 2
CNC(=O)O[C@H]1[C@H](C)[C@H](O)[C@H](C)[C@@H](O)[C@@H](C)/C=C/C=C(/C)C(=O)NC2=C(N3CCOCC3)C(=O)c3c(c(O)c(C)c4c3C(=O)[C@@](C)(O/C=C/[C@H](OC)[C@H]1C)O4)C2=O | 8 (≈ 10.1 µM) | 8 | > 250 | 0.5 (≈ 0.628 µM) | 32 | 0.5 (≈ 0.628 µM) | 4 (≈ 5.03 µM) | 16 (≈ 20.1 µM) | 0.004 (≈ 0.00503 µM) | 4 (≈ 5.03 µM) | >32
CO[C@H]1/C=C/O[C@@]2(C)Oc3c(C)c(O)c4c(c3C2=O)C(=O)C(N2CCOCC2)=C(NC(=O)/C(C)=C\C=C\[C@H](C)[C@H](O)[C@@H](C)[C@@H](O)[C@@H](C)[C@H](OC(=O)N2CCC(NCc3ccccc3)CC2)[C@@H]1C)C4=O | 8 (≈ 8.38 µM) | 1 | 16 (≈ 16.8 µM) | 0.12 (≈ 0.126 µM) | 1 | 0.24 (≈ 0.251 µM) | 0.12 (≈ 0.126 µM) | 0.24 (≈ 0.251 µM) | 0.03 (≈ 0.0314 µM) | > 63 | 2
COc1ccccc1-c1cc(CNC(=O)O[C@H]2[C@H](C)[C@H](O)[C@H](C)[C@@H](O)[C@@H](C)/C=C/C=C(/C)C(=O)NC3=C(N4CCOCC4)C(=O)c4c(c(O)c(C)c5c4C(=O)[C@@](C)(O/C=C/[C@H](OC)[C@H]2C)O5)C3=O)on1 | > 250 | 1 | > 250 | 0.12 (≈ 0.124 µM) | 2 | 1 (≈ 1.03 µM) | 0.12 (≈ 0.124 µM) | 2 (≈ 2.06 µM) | 0.06 (≈ 0.0619 µM) |  | 
CO[C@H]1/C=C/O[C@@]2(C)Oc3c(C)c(O)c4c(O)c(c(/C=N/N5CCN(C)CC5)c(O)c4c3C2=O)NC(=O)/C(C)=C\C=C\[C@H](C)[C@H](O)[C@@H](C)[C@@H](O)[C@@H](C)[C@H](OC(C)=O)[C@@H]1C [RIFAMPIN] | 8 (≈ 9.72 µM) | 64 | > 250 | 0.5 (≈ 0.608 µM) | 32 | 0.24 (≈ 0.292 µM) | 32 (≈ 38.9 µM) | 8 (≈ 9.72 µM) | 0.008 (≈ 0.00972 µM) | > 63 | >32
